Data reported in patent publication US12486264B2, “Bicyclic HPK1 inhibitors” (Janssen Pharmaceutica NV, priority 2019, dated 2025).

How the values were obtained:
Hpk1 = molecular target: T1, Hpk1 (Homo sapiens, UniProt Q92918); test: SLP76 phosphorylation assay (HEK293 cells expressing Hpk1 and SLP76); assay type: cell-based; details: SLP76 phosphorylation at S376, HEK293 cells expressing Hpk1 and SLP76, 4 hours incubation; for IC50: read-out: pSLP76 (HEK293) (pIC50) (converted)
T1 construct: expressed in transfected cells; host or cells: HEK293 cells engineered to express Hpk1 and SLP76
T1 sequence (Q92918 whole entry): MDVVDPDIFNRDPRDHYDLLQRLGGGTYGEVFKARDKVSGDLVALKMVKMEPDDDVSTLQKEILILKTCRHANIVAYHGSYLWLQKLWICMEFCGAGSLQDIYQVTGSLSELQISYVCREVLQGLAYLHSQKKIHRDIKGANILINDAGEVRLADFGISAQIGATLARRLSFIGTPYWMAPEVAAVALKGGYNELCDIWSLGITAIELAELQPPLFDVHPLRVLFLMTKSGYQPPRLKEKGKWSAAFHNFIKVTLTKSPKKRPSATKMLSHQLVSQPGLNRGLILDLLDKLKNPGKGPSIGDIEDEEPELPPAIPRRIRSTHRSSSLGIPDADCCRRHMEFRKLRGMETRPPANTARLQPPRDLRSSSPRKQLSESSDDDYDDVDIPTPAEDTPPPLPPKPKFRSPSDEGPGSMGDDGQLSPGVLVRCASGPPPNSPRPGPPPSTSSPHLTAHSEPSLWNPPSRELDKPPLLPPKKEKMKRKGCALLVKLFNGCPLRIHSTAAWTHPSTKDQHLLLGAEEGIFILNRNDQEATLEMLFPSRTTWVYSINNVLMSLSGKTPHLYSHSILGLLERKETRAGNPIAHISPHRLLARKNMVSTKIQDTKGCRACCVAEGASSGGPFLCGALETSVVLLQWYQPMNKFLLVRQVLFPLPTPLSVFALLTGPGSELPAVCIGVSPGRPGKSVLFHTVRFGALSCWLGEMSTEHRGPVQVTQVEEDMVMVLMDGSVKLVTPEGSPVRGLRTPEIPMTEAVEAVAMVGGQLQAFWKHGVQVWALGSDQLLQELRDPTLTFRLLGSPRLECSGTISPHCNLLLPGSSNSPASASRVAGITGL
Procedure: Hpk1 inhibition in cells was determined by detection of SLP76 phosphorylation at S376 in lysates from HEK293 cells engineered to express Hpk1 and SLP76. Serial dilutions of test compounds were prepared in cell culture medium and 20 μl was transferred into each well of a 96-well plate containing HEK293 cells in 180 μl of culture medium. After incubation for 4 hours at 37° C./5% CO2, the culture medium was removed, plates were put on ice and cells washed with cold Minimal Essential Medium before lysing in 90 μl of cold Mammalian Protein Extraction Reagent (Thermo Scientific, 78501) for 30 minutes on ice. The cell lysates were transferred to another 96-well plate, centrifuged 10 minutes at 3000 rcf (4° C.) and 30 μl transferred to a 96-well High-bind plate (MSD, L15XB-3). After coating overnight at 4° C., the cell lysate was removed, wells were washed with base buffer (TBS, 0.2% Tween-20), and blocking solution (base buffer containing 3% MSD blocker A) was added to each well for 1 hour at room temperature. The blocking solution was removed, the wells were washed with base buffer, and detection antibody (SLP76 pS376) was added in 25 μl base buffer containing 1% MSD blocker A to each well. After a 2 h incubation at room temperature, the detection antibody was removed, wells were washed four times with base buffer, 25 μl SULFO-TAG labeled goat anti-rabbit secondary antibody (MSD, R32AB-1) in base buffer containing 1% MSD blocker A was added to each well and left for 1 hour at room temperature. Wells were washed 4 times with base buffer, 150 μl Read Buffer T was added to each well, and the plates were read in a Mesoscale plate reader (MSD). IC50 values were determined by curve-fitting the electrochemiluminescent signals obtained from the lysates of HEK293 cells expressing Hpk1 and SLP76 treated with test compounds at various concentrations minus the signal obtained from HEK293 cells expressing SLP76 only.

full-length human Hpk1 = molecular target: T2, full-length human Hpk1 (Homo sapiens, UniProt Q92918); test: HPK1 kinase assay (ADP Glo); assay type: biochemical; details: GST-Hpk1, 75 μM ATP solution added, ADP Glo luminescence; for IC50: read-out: Hpk1 biochemical (pIC50) (converted)
T2 construct: full-length human Hpk1 with an N-terminal Glutatione S-transferase (GST) tag; GST (N); made in house; host or cells: baculovirus/insect cell expression system
T2 sequence (Q92918 whole entry): as above
Procedure: A recombinant fusion protein consisting of full-length human Hpk1 with an N-terminal Glutatione S-transferase (GST) tag was produced in a baculovirus/insect cell expression system. GST-Hpk1 protein was purified from cell lysates by glutathione sepharose affinity chromatography. Kinase inhibition was determined using the ADP Glo™ Kinase Assay kit (Promega, V9101). Test compounds were prepared by serial dilution in dimethyl sulfoxide (DMSO) and 0.1 μl of each dilution was spotted onto a 384-well white Proxiplate (Perkin Elmer, 6008289). 8 μl of kinase assay buffer (40 mM Tris pH 7.5, 2 mM dithiothreitol (DTT), 0.05% Bovine Serum Albumin, 5 mM MgCl2) containing Hpk1 protein was transferred to each well and incubated for 30-45 minutes at room temperature. The enzymatic reaction was started by adding 2 μl of kinase assay buffer containing 75 μM ATP. After 120 minutes, the reaction was stopped by adding 3 μl of ADP Glo™ reagent (Promega, V9101) and incubating 45 minutes at room temperature.

IC50 (Hpk1) [nM] | IC50 (full-length human Hpk1) [nM] | pSLP76 (HEK293) (pIC50) (Hpk1) | Hpk1 biochemical (pIC50) (full-length human Hpk1) | SMILES
257 | 3.39 |  |  | CC(C)[C@H](CO)CNC(=O)c1c[nH]c2ncc(-c3ccc(C4CCOCC4)c(CN(C)C)c3)cc12 (single isomer, unassigned) [Co. 31a]
1320 | 26.3 |  |  | CC(C)[C@@H](CO)CNC(=O)c1c[nH]c2ncc(-c3ccc(C4CCOCC4)c(CN(C)C)c3)cc12 (single isomer, unassigned) [Co. 31b]
288 | 1.86 |  |  | Cc1c[nH]c2ncc(-c3ccc(C4CCOCC4)c([C@@H]4CCCN4)c3)cc12 [Co. 1]
6760 | 145 |  |  | Cc1cc2cc(-c3ccc(C4CCOCC4)c(C4CCCN4)c3)cnc2[nH]1 (stereo not shown) [Co. 2]
257 | 3.16 |  |  | N#Cc1c[nH]c2ncc(-c3ccc(C4CCOCC4)c(C4CCCN4)c3)cc12 (stereo not shown) [Co. 3]
120 | 11.2 |  |  | N#CCc1c[nH]c2ncc(-c3ccc(C4CCOCC4)c([C@@H]4CCCN4)c3)cc12 [Co. 4]
389 | 30.2 |  |  | c1cc2cc(-c3ccc(C4CCOCC4)c(C4CCCN4)c3)cnc2[nH]1 (stereo not shown) [Co. 6]
112 | 4.47 |  |  | Cc1c[nH]c2ncc(-c3ccc(C4CCOCC4)c([C@@H]4COCCN4)c3)cc12 [Co. 8]
3550 | 21.9 |  |  | CC(C)C(O)CNC(=O)c1c[nH]c2ncc(-c3ccc(C4CCOCC4)c(CN(C)C)c3)cc12 (stereo not shown) [Co. 11]
575 | 5.75 |  |  | CN(C)Cc1cc(-c2cnc3[nH]cc(C(=O)NCC(C)(C)O)c3c2)ccc1C1CCOCC1 [Co. 12]
759 | 12 |  |  | CN(C)Cc1cc(-c2cnc3[nH]cc(C(=O)NCC(CO)C4CC4)c3c2)ccc1C1CCOCC1 (stereo not shown) [Co. 13]
380 | 7.94 |  |  | CN(C)Cc1cc(-c2cnc3[nH]cc(C(=O)NCC4(CO)CC4)c3c2)ccc1C1CCOCC1 [Co. 15]
> 10000 | 53.7 |  |  | CN(C)Cc1cc(-c2cnc3[nH]cc(C(=O)NCC4(CO)COC4)c3c2)ccc1C1CCOCC1 [Co. 16]
251 | 3.8 |  |  | CN(C)Cc1cc(-c2cnc3[nH]cc(C(=O)NCC4(CO)CCCC4)c3c2)ccc1C1CCOCC1 [Co. 17]
263 | 2.88 |  |  | CN(C)Cc1cc(-c2cnc3[nH]cc(C(=O)N[C@@H]4CCC[C@@H]4O)c3c2)ccc1C1CCOCC1 [Co. 18]
1020 | 10.2 |  |  | CN(C)Cc1cc(-c2cnc3[nH]cc(C(=O)NCc4ncco4)c3c2)ccc1C1CCOCC1 [Co. 19]

IC50 (Hpk1) [nM] | IC50 (full-length human Hpk1) [nM] | pSLP76 (HEK293) (pIC50) (Hpk1) | Hpk1 biochemical (pIC50) (full-length human Hpk1) | SMILES
6920 | 28.2 |  |  | CN(C)Cc1cc(-c2cnc3[nH]cc(C(=O)NCc4nccn4C)c3c2)ccc1C1CCOCC1 [Co. 20a]
7240 | 93.3 |  |  | CN(C)Cc1cc(-c2cnc3[nH]cc(C(=O)N(C)C)c3c2)ccc1C1CCOCC1 [Co. 20b]
9550 | 33.9 |  |  | Cc1nnc(CNC(=O)c2c[nH]c3ncc(-c4ccc(C5CCOCC5)c(CN(C)C)c4)cc23)o1 [Co. 21]
6460 | 58.9 |  |  | Cc1nc(CNC(=O)c2c[nH]c3ncc(-c4ccc(C5CCOCC5)c(CN(C)C)c4)cc23)no1 [Co. 22]
1580 | 10.5 |  |  | CN(C)Cc1cc(-c2cnc3[nH]cc(C(=O)NCC4(O)CCCC4)c3c2)ccc1C1CCOCC1 [Co. 23]
1550 | 4.47 |  |  | CN(C)Cc1cc(-c2cnc3[nH]cc(C(=O)NCc4nccs4)c3c2)ccc1C1CCOCC1 [Co. 24]
4270 | 38.9 |  |  | CN(C)Cc1cc(-c2cnc3[nH]cc(C(=O)NCC4CCC(=O)N4C)c3c2)ccc1C1CCOCC1 (stereo not shown) [Co. 26]
 |  | 5.94 | 7.93 | CC(CO)CNC(=O)c1c[nH]c2ncc(-c3ccc(C4CCOCC4)c(CN(C)C)c3)cc12 (stereo not shown) [Co. 27]
1550 | 12.3 |  |  | CN(C)Cc1cc(-c2cnc3[nH]cc(C(=O)NCCNC(=O)C(F)F)c3c2)ccc1C1CCOCC1 [Co. 29]
2140 | 15.8 |  |  | COCC(C)(O)CNC(=O)c1c[nH]c2ncc(-c3ccc(C4CCOCC4)c(CN(C)C)c3)cc12 (stereo not shown) [Co. 30]
1580 | 66.1 |  |  | CC(=O)N(C)CCNC(=O)c1c[nH]c2ncc(-c3ccc(C4CCOCC4)c(CN(C)C)c3)cc12 [Co. 32]
> 10000 | 9.12 |  |  | CN(C)Cc1cc(-c2cnc3[nH]cc(C(=O)NS(=O)(=O)C4CC4)c3c2)ccc1C1CCOCC1 [Co. 33]
> 10000 | 324 |  |  | CC(C)C(CO)CNCc1c[nH]c2ncc(-c3ccc(C4CCOCC4)c(CN(C)C)c3)cc12 (stereo not shown) [Co. 34]
3020 | 22.9 |  |  | c1coc(CNCc2c[nH]c3ncc(-c4ccc(C5CCOCC5)c(C5CCCN5)c4)cc23)n1 (stereo not shown) [Co. 35]
2630 | 40.7 |  |  | CC(C)C(CO)CNC(c1c[nH]c2ncc(-c3ccc(C4CCOCC4)c(CN(C)C)c3)cc12)C(F)(F)F (stereo not shown) [Co. 36]
1660 | 21.9 |  |  | CN(C)Cc1cc(-c2cnc3[nH]cc(C(NCc4ncco4)C(F)(F)F)c3c2)ccc1C1CCOCC1 (stereo not shown) [Co. 37]
